Results as given in ChEMBL document CHEMBL1687791, “Identification and characterization of four azole-resistant erg3 mutants of Candida albicans” (2010).
Values after ≈ are worked out from the molar mass of the structure shown.

Key:
Type in all cases: functional
Candida albicans [1] = test: Antifungal activity against Candida albicans isolate 1008 harboring ERG3 K97E, L193P, V237A, A351V, A353T and ERG11 E266D mutant genes by broth microdilution method in presence of 10 uM drug efflux inhibitor FK506
Candida albicans [2] = test: Antifungal activity against Candida albicans isolate 14 by broth microdilution method in presence of 10 uM drug efflux inhibitor FK506
Candida albicans [3] = test: Antifungal activity against Candida albicans isolate 12 harboring ERG3 W332R mutant gene by broth microdilution method in presence of 10 uM drug efflux inhibitor FK506
Candida albicans [4] = test: Antifungal activity against Candida albicans isolate 12 harboring ERG3 W332R mutant gene by broth microdilution method
Candida albicans [5] = test: Antifungal activity against Candida albicans isolate 488 harboring ERG3 H243N, T330A, A351V and ERG11 D225G, E266D, E391G, V488I mutant genes by broth microdilution method in presence of 10 uM drug efflux inhibitor FK506
Candida albicans [6] = test: Antifungal activity against Candida albicans isolate 490 harboring ERG3 D147G, T330A, A351V and ERG11 F72S, T229A, E266D, N440S, V488I, R523G mutant genes by broth microdilution method in presence of 10 uM drug efflux inhibitor FK506
Candida albicans [7] = test: Antifungal activity against Candida albicans isolate 14 assessed as ergosterol content in total sterol composition at 0.5 times MIC by GC-MS analysis
Candida albicans [8] = test: Antifungal activity against Candida albicans isolate 6 by broth microdilution method
Candida albicans [9] = test: Antifungal activity against Candida albicans isolate 6 assessed as eburicol content in total sterol composition at 0.5 times MIC by GC-MS analysis
Candida albicans [10] = test: Antifungal activity against Candida albicans isolate 12 harboring ERG3 W332R mutant gene assessed as 14alpha-methylergosta-8,24(28)-dien-3beta,6alpha-diol content in total sterol composition at 0.5 times MIC by GC-MS analysis
Candida albicans [11] = test: Antifungal activity against Candida albicans isolate 177 assessed as 14alpha-methylergosta-8,24(28)-dien-3beta,6alpha-diol content in total sterol composition at 0.5 times MIC by GC-MS analysis
Candida albicans [12] = test: Antifungal activity against Candida albicans isolate 488 harboring ERG3 H243N, T330A, A351V and ERG11 D225G, E266D, E391G, V488I mutant genes assessed as ergosterol content in total sterol composition at 0.5 times MIC by GC-MS analysis
Candida albicans [13] = test: Antifungal activity against Candida albicans isolate 12 harboring ERG3 W332R mutant gene assessed as 14alpha-methyl fecosterol content in total sterol composition at 0.5 times MIC by GC-MS analysis
Candida albicans [14] = test: Antifungal activity against Candida albicans isolate 1008 harboring ERG3 K97E, L193P, V237A, A351V, A353T and ERG11 E266D mutant genes assessed as 14alpha-methyl fecosterol content in total sterol composition at 0.5 times MIC by GC-MS analysis
Candida albicans [15] = test: Antifungal activity against Candida albicans isolate 177 assessed as eburicol content in total sterol composition at 0.5 times MIC by GC-MS analysis
Candida albicans [16] = test: Antifungal activity against Candida albicans isolate 177 by broth dilution method in presence of 10 uM drug efflux inhibitor FK506
Candida albicans [17] = test: Antifungal activity against Candida albicans isolate 1008 harboring ERG3 K97E, L193P, V237A, A351V, A353T and ERG11 E266D mutant genes assessed as eburicol content in total sterol composition at 0.5 times MIC by GC-MS analysis
Candida albicans [18] = test: Antifungal activity against Candida albicans isolate 490 harboring ERG3 D147G, T330A, A351V and ERG11 F72S, T229A, E266D, N440S, V488I, R523G mutant genes assessed as lanosterol/obtusifoliol content in total sterol composition at 0.5 times MIC by GC-MS analysis
Candida albicans [19] = test: Antifungal activity against Candida albicans isolate 488 harboring ERG3 H243N, T330A, A351V and ERG11 D225G, E266D, E391G, V488I mutant genes by broth microdilution method
Candida albicans [20] = test: Antifungal activity against Candida albicans isolate 177 assessed as ergosterol content in total sterol composition at 0.5 times MIC by GC-MS analysis
Candida albicans [21] = test: Antifungal activity against Candida albicans isolate 177 assessed as lanosterol/obtusifoliol content in total sterol composition at 0.5 times MIC by GC-MS analysis
Candida albicans [22] = test: Antifungal activity against Candida albicans isolate 488 harboring ERG3 H243N, T330A, A351V and ERG11 D225G, E266D, E391G, V488I mutant genes assessed as 14alpha-methyl fecosterol content in total sterol composition at 0.5 times MIC by GC-MS analysis
Candida albicans [23] = test: Antifungal activity against Candida albicans isolate 12 harboring ERG3 W332R mutant gene assessed as ergosta 7,22-dienol content in total sterol composition at 0.5 times MIC by GC-MS analysis
Candida albicans [24] = test: Antifungal activity against Candida albicans isolate 1008 harboring ERG3 K97E, L193P, V237A, A351V, A353T and ERG11 E266D mutant genes assessed as lanosterol/obtusifoliol content in total sterol composition at 0.5 times MIC by GC-MS analysis
Candida albicans [25] = test: Antifungal activity against Candida albicans isolate 12 harboring ERG3 W332R mutant gene assessed as eburicol content in total sterol composition at 0.5 times MIC by GC-MS analysis
Candida albicans [26] = test: Antifungal activity against Candida albicans isolate 12 harboring ERG3 W332R mutant gene assessed as ergosterol content in total sterol composition at 0.5 times MIC by GC-MS analysis
Candida albicans [27] = test: Antifungal activity against Candida albicans isolate 1008 harboring ERG3 K97E, L193P, V237A, A351V, A353T and ERG11 E266D mutant genes by broth microdilution method
Candida albicans [28] = test: Antifungal activity against Candida albicans isolate 490 harboring ERG3 D147G, T330A, A351V and ERG11 F72S, T229A, E266D, N440S, V488I, R523G mutant genes assessed as 14alpha-methylergosta-8,24(28)-dien-3beta,6alpha-diol content in total sterol composition at 0.5 times MIC by GC-MS analysis
Candida albicans [29] = test: Antifungal activity against Candida albicans isolate 6 assessed as ergosterol content in total sterol composition at 0.5 times MIC by GC-MS analysis
Candida albicans [30] = test: Antifungal activity against Candida albicans isolate 488 harboring ERG3 H243N, T330A, A351V and ERG11 D225G, E266D, E391G, V488I mutant genes assessed as eburicol content in total sterol composition at 0.5 times MIC by GC-MS analysis
Candida albicans [31] = test: Antifungal activity against Candida albicans isolate 177 assessed as 14alpha-methyl fecosterol content in total sterol composition at 0.5 times MIC by GC-MS analysis

## OC(Cn1cncn1)(Cn1cncn1)c1ccc(F)cc1F [FLUCONAZOLE]
Candida albicans [1]
  MIC: > 256 µg/mL
Candida albicans [2]
  MIC: 1 µg/mL
Candida albicans [3]
  MIC: > 256 µg/mL
Candida albicans [4]
  MIC: > 256 µg/mL
Candida albicans [5]
  MIC: 2 µg/mL
Candida albicans [6]
  MIC: 2 µg/mL
Candida albicans [7]
  Activity: 89.4%
Candida albicans [8]
  MIC: 256 µg/mL (≈ 836 µM)
Candida albicans [9]
  Activity: 5.4%
Candida albicans [10]
  Activity: 1.6%
Candida albicans [11]
  Activity: 6.5%
Candida albicans [12]
  Activity: 7.2%
Candida albicans [13]
  Activity: 64.3%
Candida albicans [14]
  Activity: 74%
Candida albicans [15]
  Activity: 4.9%
Candida albicans [16]
  MIC: 0.5 µg/mL
Candida albicans [17]
  Activity: 9.8%
Candida albicans [18]
  Activity: 13.7%
Candida albicans [19]
  MIC: > 256 µg/mL
Candida albicans [20]
  Activity: 76%
Candida albicans [21]
  Activity: 10.6%
Candida albicans [22]
  Activity: 55.6%
Candida albicans [23]
  Activity: 1.7%
Candida albicans [24]
  Activity: 14.4%
Candida albicans [25]
  Activity: 11.6%
Candida albicans [26]
  Activity: 2.6%
Candida albicans [27]
  MIC: > 256 µg/mL
Candida albicans [28]
  Activity: 13.7%
Candida albicans [29]
  Activity: 74.5%
Candida albicans [30]
  Activity: 7.7%
Candida albicans [31]
  Activity: 2%
